This test deals with cortisol in plasma. Kind of test: Lamb trials: plasma cortisol. The test is classed as in vivo, lambs (sheep). Particulars: * p<.05. The source says: The lambs used in Trial 1 consisted of medium-frame crossbred wethers and ewes weighing 26 to 31 kg. The lambs used in Trial 2 consisted of medium-framced crossbred rams weighing 18 to 25 kg. Each animal was raised as a single. The lambs were housed in a temperature controlled room in individual pens with nipple waterers. When received, the lamps were vaccinated for enterotoxemia. They were allowed to adjust to the pens and the environment for 10 days. One day before the trial began, the lambs were sheared and placed on their respective dietary treatments. The lamps were allotted blocking by weight and sex into two dietary treatment groups. Growth and feed consumption were measured bi-weekly. All lamb weights were taken after a 12 to 16 hour fast. The animals were slaughtered at 50 kg in the Iowa State University Meat laboratory facilities at Ames, Iowa. At slaughter, the lamb's internal organs and wool were weighed and sampled, loin eye area and back fat measured, and carcasses separated into fat, lean, and bone.
The SMB (soybean meal-containing) and the CGM (corn-gluten-containing) diets (compositions given in Table A) were fed twice per day in quantities ensuring that feed was before the lambs at all times. The diets were calculated to be equivalent to each other with respect to metabolizable protein, ether extract, fiber, and minerals with the exception of calcium and phosphorus. […] The CGM diet was calculated to contain slightly more energy (TDN 81.7 vs. 79.0, NEm 1.88 v. 1.86, Neg. 1.23 vs. 1.22). […] The soybean meal ingredient contained about 3.5 wt % leucine, while the corn gluten meal ingredient contained about 15 wt % leucine. The CGM diet was therefore higher in leucine than the SBM diet, containing an estimated 16 wt % leucine as compared with an estimated 8 wt % leucine based on total crude protein in the diet.
^(7) Amount of cortisol in plasma (ng/ml).

The values that follow come from patent US4835185A, “Immunomodulator for improving commercial performance of domestic animals” (Iowa State University Research Foundation, Inc., priority 1987, dated 1989).

On to `CC(C)CC(=O)C(=O)O` [KIC, alpha-ketoisocaproate], for which the “CORTISOL: amount of cortisol in plasma” value (Trial 1, CGM diet, 1% KIC (0%: 1.04)) is “.65 ng/mL”; the “CORTISOL: amount of cortisol in plasma” value (Trial 1, SBM diet, 1% KIC (0%: .99)) is “.83 ng/mL”; the “CORTISOL: amount of cortisol in plasma” value (Trial 2, CGM diet, 1% KIC (0%: 3.77)) was 2.43 ng/mL; the “CORTISOL: amount of cortisol in plasma” value (Trial 2, SBM diet, 1% KIC (0%: 2.70)) stood at 2.25 ng/mL.
